Data from ChEMBL document CHEMBL5500323, “Plasmodium falciparum topoisomerases: Emerging targets for anti-malarial therapy” (Eur J Med Chem, 2024).
Each block holds one molecule with its values, some of them ahead of it.

Experiments:
DNA topoisomerase 2 = biological target: T1, DNA topoisomerase 2 (Plasmodium falciparum K1, UniProt P41001); test: Inhibition of Plasmodium falciparum isolate K1 DNA topoisomerase 2
T1 sequence (P41001 whole entry): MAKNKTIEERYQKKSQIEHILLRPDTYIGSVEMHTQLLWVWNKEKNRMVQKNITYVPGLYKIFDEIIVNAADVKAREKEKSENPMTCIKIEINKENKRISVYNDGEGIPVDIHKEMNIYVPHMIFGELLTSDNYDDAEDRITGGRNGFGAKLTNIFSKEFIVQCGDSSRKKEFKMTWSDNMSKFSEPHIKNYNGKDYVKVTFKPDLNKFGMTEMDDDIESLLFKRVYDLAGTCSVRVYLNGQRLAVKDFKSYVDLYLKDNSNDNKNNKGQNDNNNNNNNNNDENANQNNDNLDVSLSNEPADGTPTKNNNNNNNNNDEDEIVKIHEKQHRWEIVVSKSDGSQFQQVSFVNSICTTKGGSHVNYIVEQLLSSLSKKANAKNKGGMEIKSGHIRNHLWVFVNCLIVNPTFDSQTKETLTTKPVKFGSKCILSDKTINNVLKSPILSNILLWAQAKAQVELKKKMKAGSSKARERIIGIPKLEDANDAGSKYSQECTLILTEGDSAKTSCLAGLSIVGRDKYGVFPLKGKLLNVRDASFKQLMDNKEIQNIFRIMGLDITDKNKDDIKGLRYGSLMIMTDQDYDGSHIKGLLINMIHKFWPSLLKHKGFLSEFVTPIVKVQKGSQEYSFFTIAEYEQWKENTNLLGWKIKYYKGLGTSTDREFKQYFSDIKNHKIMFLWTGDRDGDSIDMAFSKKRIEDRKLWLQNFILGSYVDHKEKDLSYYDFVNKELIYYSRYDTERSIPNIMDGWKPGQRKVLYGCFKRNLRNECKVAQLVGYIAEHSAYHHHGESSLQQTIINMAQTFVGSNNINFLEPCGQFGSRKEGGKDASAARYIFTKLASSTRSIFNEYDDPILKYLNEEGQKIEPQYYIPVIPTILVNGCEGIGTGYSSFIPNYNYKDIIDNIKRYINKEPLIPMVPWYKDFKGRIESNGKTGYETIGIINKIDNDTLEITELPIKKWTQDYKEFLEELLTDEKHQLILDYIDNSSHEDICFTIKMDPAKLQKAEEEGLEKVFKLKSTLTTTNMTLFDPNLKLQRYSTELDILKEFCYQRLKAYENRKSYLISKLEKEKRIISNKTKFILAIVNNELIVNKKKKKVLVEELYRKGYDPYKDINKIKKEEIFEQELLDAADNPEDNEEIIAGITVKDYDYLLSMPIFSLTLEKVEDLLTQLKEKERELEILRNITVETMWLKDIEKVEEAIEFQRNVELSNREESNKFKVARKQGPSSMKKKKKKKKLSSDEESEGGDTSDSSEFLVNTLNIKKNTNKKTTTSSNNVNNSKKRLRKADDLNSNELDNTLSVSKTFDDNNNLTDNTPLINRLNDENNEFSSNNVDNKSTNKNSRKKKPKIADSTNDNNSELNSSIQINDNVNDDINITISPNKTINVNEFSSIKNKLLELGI

DNA gyrase = DNA gyrase (Escherichia coli, UniProt P0AES4+P0AES6); test: Inhibition of Escherichia coli DNA gyrase ATPase activity incubated for 80 mins; assay type: protein-complex assay
[1] = Inhibition of recombinant Plasmodium falciparum strain 3D7 Gyrase B expressed in Escherichia coli BL21 (DE3)
[2] = Inhibition of DNA topoisomerase II (unknown origin); parameters: species or system Homo sapiens
[3] = Inhibition of Plasmodium falciparum 3D7 Gyrase B
[4] = Inhibition of Plasmodium falciparum NF54 Gyrase B
[5] = Inhibition of C-terminal 6His-tagged Plasmodium falciparum Gyrase B expressed in Escherichia coli
[6] = Inhibition of Plasmodium falciparum DNA topoisomerase VI

SMILES: O=C1c2ccccc2C(=O)c2c1cc(S(=O)(=O)O)c(O)c2O [Alizarin Red S]
IC50 (DNA gyrase): 55.6 µM

SMILES: CO[C@@H]1[C@@H](OC(=O)c2ccc(C)[nH]2)[C@@H](O)[C@H](Oc2ccc3c(O)c(NC(=O)c4c[nH]c(C(=O)Nc5c(O)c6ccc(O[C@@H]7OC(C)(C)[C@H](OC)[C@@H](OC(=O)c8ccc(C)[nH]8)[C@H]7O)c(C)c6oc5=O)c4C)c(=O)oc3c2C)OC1(C)C
IC50 [1]: 40 µM

SMILES: O=c1c(O)cccc2cc(O)c(O)c(O)c12 [PURPUROGALLIN]
IC50 (DNA gyrase): 9.56 µM

SMILES: COc1cc([C@@H]2c3cc4c(cc3[C@@H](O[C@@H]3O[C@@H]5CO[C@@H](C)O[C@H]5[C@H](O)[C@H]3O)[C@H]3COC(=O)[C@H]23)OCO4)cc(OC)c1O [ETOPOSIDE]
IC50 [2]: 20 µM

SMILES: C[C@@H]1C[C@H]2O[C@@H]2/C=C\C=C\C(=O)Cc2c(Cl)c(O)cc(O)c2C(=O)O1 [RADICICOL]
IC50 [6]: 80 µM

Now from value to molecule:

IC50 (DNA topoisomerase 2): 5.5 µM
SMILES: COc1ccc2nc3cc(Cl)ccc3c(Nc3cc(CN4CCCC4)c(O)c(CN4CCCC4)c3)c2n1 [PYRONARIDINE]

IC50 [2]: 35 µM
SMILES: O=C(O)c1cn(C2CC2)c2cc(N3CCNCC3)c(F)cc2c1=O [CIPROFLOXACIN]

IC50 [3]: 1 µM
SMILES: C[n+]1c2cc(N)ccc2cc2ccc(N)cc21 [EUFLAVINE]

IC50 [4]: 3.2 µM
SMILES: NC1CCN(c2c(F)cc3c(=O)c(C(=O)O)cn(C4CC4)c3c2Cl)C1 (configuration not stated) [CLINAFLOXACIN]

IC50 [5]: 30 µM
SMILES: CO[C@@H]1[C@@H](OC(N)=O)[C@@H](O)[C@H](Oc2ccc3c(O)c(NC(=O)c4ccc(O)c(CC=C(C)C)c4)c(=O)oc3c2C)OC1(C)C [NOVOBIOCIN]

IC50 [2]: 0.6 µM
SMILES: COc1ccc2ncc(C#N)c(CCN3CCC(NCc4cc5c(cn4)OCS5)CC3)c2c1

IC50 [4]: 12 µM
SMILES: COc1c(N2CCNC(C)C2)c(F)cc2c(=O)c(C(=O)O)cn(C3CC3)c12 (configuration not stated) [GATIFLOXACIN]
